Laboratory results: patent US12390451B2, “Small molecule inhibitor of the JAK family of kinases” (Janssen Pharmaceutica NV, priority 2021, dated 2025)
Where two headings read alike, the source gives them in different places.

Columns and labels:
[1] = Serum and colonic concentrations in IL-12/IL-18 studies S-1 and S-2; type: in vivo, C57BL/6 mice; details: mice, mean±SEM; for concentration at 4 h / concentration at 30 min: C57BL/6, mouse, po; for concentration at 30 min: read-out: Serum 30 min post dosing
Procedure: C57BL/6 mice (6 to 8 weeks old) were randomized by weight and assigned to various treatment groups for each of two studies. Mice were challenged intraperitoneally with a combination of IL-12 (250 ng) and IL-18 (1 μg). To examine the effect of compound of Formula I on IL-12/IL-18-induced pSTAT-3 response, groups of mice were orally dosed with compound of Formula I 1 hour prior to IL-12/IL-18 challenge. Three hours after IL-12/IL-18 challenge, mice were euthanized with CO2 asphyxiation, blood was collected via cardiocentesis for PK analysis, and colon tissues were collected for measuring pSTAT-3 response and drug levels. Mice dosed orally with 20% 2-hydroxypropyl-β-cyclodextrin (HP-β-CD) were used as vehicle controls. Two independent studies (S-1 and S-2) were conducted to examine the effect of compound of Formula I on IL-12/IL-18-induced colonic pSTAT-3 response in mice. […] Serum levels were measured at 30 minutes and 4 hours (terminal) after dosing. […] Colon drug levels were measured 4 hours after dosing. […] Colonic exposure of compound of Formula I increased in a dose-dependent fashion. At 25 mg/kg dose, colonic exposure of compound of Formula I was 30814.5±5552.5 ng/g and 18256.5±4118.8 ng/g tissue. […] Oral dosing of compound of Formula I in mice resulted, as shown in other studies, in minimum systemic exposure and lack of consistent dose-dependent pharmacodynamic responses in the blood.
Data are presented as mean±SEM; N=3-7/group. BLOQ, below limit of quantification; min, minutes; h, hour(s).
Data are presented as mean±SEM; N=3 to 7/group. BLOQ, below limit of quantification; min, minutes; h, hour(s).

[2] = Tissue distribution in rats after oral administration; type: in vivo, male Sprague-Dawley rats; details: PO 25 mg/kg
Procedure: Preliminary tissue distribution studies were conducted in male Sprague-Dawley rats (N=3/time point) at 0.5, 1, 2, 3, 5, 7, and 24 hours following oral administration of compound of Formula I at a dose of 25 mg/kg. The following tissues were harvested for compound concentration analysis: liver, kidney, brain, muscle, epididymis fat, duodenum, jejunum, ileum, colon (both lumen content and tissue), and plasma. The results of this study indicated low systemic exposure and high local concentrations (intestinal tract).

[3] = 1 h, BLOQ 0.5 ng/mL of tissue homogenate
[4] = 2 h, BLOQ 0.5 ng/mL of tissue homogenate
[5] = 3 h, BLOQ 0.5 ng/mL of tissue homogenate
[6] = 5 h, BLOQ 0.5 ng/mL of tissue homogenate
[7] = 24 h, BLOQ 0.5 ng/mL of tissue homogenate

- concentration at 4 h ([1]; colon, 10 mg/kg, S-1, oral 10 mg/kg, read-out: Colon 4 h post dosing): 6600 ± 787 ng/g
- concentration at 4 h ([1]; colon, 10 mg/kg, S-2, oral 10 mg/kg, read-out: Colon 4 h post dosing): 10100 ± 1300 ng/g
- concentration at 4 h ([1]; colon, 25 mg/kg, S-1, oral 25 mg/kg, read-out: Colon 4 h post dosing): 30800 ± 5550 ng/g
- concentration at 4 h ([1]; colon, 25 mg/kg, S-2, oral 25 mg/kg, read-out: Colon 4 h post dosing): 18300 ± 4120 ng/g
- concentration at 4 h ([1]; colon, 50 mg/kg, S-1, oral 50 mg/kg, read-out: Colon 4 h post dosing): 59600 ± 11300 ng/g
- concentration at 4 h ([1]; colon, 50 mg/kg, S-2, oral 50 mg/kg, read-out: Colon 4 h post dosing): 35600 ± 5560 ng/g
- concentration at 30 min ([1]; serum, 10 mg/kg, S-1, oral 10 mg/kg): 7.4 ± 1.4 nM
- concentration at 30 min ([1]; serum, 10 mg/kg, S-2, oral 10 mg/kg): 7 ± 0.7 nM
- concentration at 30 min ([1]; serum, 25 mg/kg, S-1, oral 25 mg/kg): 21.8 ± 5.5 nM
- concentration at 4 h ([1]; serum, 25 mg/kg, S-1, oral 25 mg/kg, read-out: Serum 4 h post dosing): 25 ± 20.3 nM
- concentration at 30 min ([1]; serum, 25 mg/kg, S-2, oral 25 mg/kg): 70.5 ± 60.4 nM
- concentration at 4 h ([1]; serum, 25 mg/kg, S-2, oral 25 mg/kg, read-out: Serum 4 h post dosing): 45.1 ± 24 nM
- concentration at 30 min ([1]; serum, 50 mg/kg, S-1, oral 50 mg/kg): 122 ± 87.2 nM
- concentration at 4 h ([1]; serum, 50 mg/kg, S-1, oral 50 mg/kg, read-out: Serum 4 h post dosing): 19.7 ± 8 nM
- concentration at 30 min ([1]; serum, 50 mg/kg, S-2, oral 50 mg/kg): 38.8 ± 7.4 nM
- concentration at 4 h ([1]; serum, 50 mg/kg, S-2, oral 50 mg/kg, read-out: Serum 4 h post dosing): 131 ± 108 nM
- Serum 4 h post dosing ([1]; S-1, oral 10 mg/kg): BLOQ
- Serum 30 min post dosing ([1]; S-1, oral 10 mg/kg, 10 mg/kg): 7.4 ± 1.4 nM
- Colon 4 h post dosing ([1]; S-1, oral 25 mg/kg, 25 mg/kg): 30814.5 ± 5552.5 ng/g
- Serum 30 min post dosing ([1]; S-1, oral 25 mg/kg, 25 mg/kg): 21.8 ± 5.5 nM
- Serum 30 min post dosing ([1]; S-1, oral 50 mg/kg, 50 mg/kg): 121.7 ± 87.2 nM
- Serum 4 h post dosing ([1]; S-2, oral 10 mg/kg): BLOQ
- Serum 30 min post dosing ([1]; S-2, oral 10 mg/kg, 10 mg/kg): 7.0 ± 0.7 nM
- Colon 4 h post dosing ([1]; S-2, oral 25 mg/kg, 25 mg/kg): 18256.5 ± 4118.8 ng/g
- Serum 30 min post dosing ([1]; S-2, oral 25 mg/kg, 25 mg/kg): 70.5 ± 60.4 nM
- Serum 30 min post dosing ([1]; S-2, oral 50 mg/kg, 50 mg/kg): 38.8 ± 7.4 nM
- Brain concentration [2, 3]: BLOQ^(a)
- Fat concentration [2, 3]: BLOQ^(a)
- Kidney concentration ([2]; 1 h, SD NA): 42.2 ng/g
- Plasma concentration ([2]; 1 h, SD NA): 5.8 ng/mL
- Brain concentration [2, 4]: BLOQ^(a)
- Fat concentration [2, 4]: BLOQ^(a)
- Muscle concentration [2, 4]: BLOQ^(a)
- Brain concentration [2, 5]: BLOQ^(a)
- Muscle concentration [2, 5]: BLOQ^(a)
- Ileum Content concentration ([2]; 3 h, average, N = 3): 1,402,241 ng/mL
- Brain concentration [2, 6]: BLOQ^(a)
- Fat concentration [2, 6]: BLOQ^(a)
- Muscle concentration [2, 6]: BLOQ^(a)
- Brain concentration ([2]; 7 h, BLOQ 0.5 ng/mL of tissue homogenate): BLOQ^(a)
- Plasma concentration ([2]; 24 h, BLOQ 0.5 ng/mL): BLOQ^(a)
- Brain concentration [2, 7]: BLOQ^(a)
- Fat concentration [2, 7]: BLOQ^(a)
- Kidney concentration [2, 7]: BLOQ^(a)
- Muscle concentration [2, 7]: BLOQ^(a)
- concentration at 0.5 h ([2]; male, Sprague-Dawley, rat, brain, average ±SD, read-out: Brain concentration): 3.5 ± 3.1 ng/g
- concentration at 0.5 h ([2]; male, Sprague-Dawley, rat, colon lumen content, average, N = 3, read-out: Colon Content concentration): 167 ng/mL
- concentration at 1 h ([2]; male, Sprague-Dawley, rat, colon lumen content, 1 h, average, N = 3, read-out: Colon Content concentration): 135 ng/mL
- concentration at 2 h ([2]; male, Sprague-Dawley, rat, colon lumen content, 2 h, average, N = 3, read-out: Colon Content concentration): 19100 ng/mL
- concentration at 3 h ([2]; male, Sprague-Dawley, rat, colon lumen content, 3 h, average, N = 3, read-out: Colon Content concentration): 304000 ng/mL
- concentration at 5 h ([2]; male, Sprague-Dawley, rat, colon lumen content, 5 h, average, N = 3, read-out: Colon Content concentration): 830000 ng/mL
- concentration at 7 h ([2]; male, Sprague-Dawley, rat, colon lumen content, 7 h, average, N = 3, read-out: Colon Content concentration): 834000 ng/mL
- concentration at 24 h ([2]; male, Sprague-Dawley, rat, colon lumen content, 24 h, average, N = 3, read-out: Colon Content concentration): 7590 ng/mL
- concentration at 0.5 h ([2]; male, Sprague-Dawley, rat, colon tissue, average, N = 3, read-out: Colon Tissue concentration): 946 ng/g
- concentration at 1 h ([2]; male, Sprague-Dawley, rat, colon tissue, 1 h, average, N = 3, read-out: Colon Tissue concentration): 383 ng/g
- concentration at 2 h ([2]; male, Sprague-Dawley, rat, colon tissue, 2 h, average, N = 3, read-out: Colon Tissue concentration): 2190 ng/g
- concentration at 3 h ([2]; male, Sprague-Dawley, rat, colon tissue, 3 h, average, N = 3, read-out: Colon Tissue concentration): 12400 ng/g
- concentration at 5 h ([2]; male, Sprague-Dawley, rat, colon tissue, 5 h, average, N = 3, read-out: Colon Tissue concentration): 33500 ng/g
Structure (SMILES): CC(C)(O)CNC(=O)Cc1nc2cnc3[nH]ccc3c2n1[C@H]1CC[C@H](CC#N)CC1 [Compound of Formula I, 2-(1-((1r,4r)-4-(Cyanomethyl)cyclohexyl)-1,6-dihydroimidazo[4,5-d]pyrrolo[2,3-b]pyridin-2-yl)-N-(2-hydroxy-2-methylpropyl)acetamide]
